Assay results published in patent US20030199584A1, “Reduction of hair growth” (priority 2002, published 2003).
Read-outs that look alike come from different tables or passages of the source.

Columns and labels:
[1] = In vitro diffusion skin penetration assay of DFMO, skin species not named; assay type: in vitro ADME, Golden, Syrian hamsters or Hartley guinea pigs; details: for Fold-Enhancement DDP/Control: DDP 10%; for % Applied Dose of DFMO penetrated: cream formulation 1 with or without DDP 10%
Excerpt: (§1) An in vitro diffusion assay was established based on that reported by Franz. Dorsal skin from Golden, Syrian hamsters or Hartley guinea pigs is clipped with electric clippers, trimmed to the appropriate size and placed in a glass diffusion chamber. The receptor fluid consisted of phosphate buffered saline, an isotonic solution for maintaining cell viability and 0.1% sodium azide, a preservative and was placed in the lower chamber of the diffusion apparatus such that the level of the receptor fluid was in parallel with the mounted skin. After equilibration at 37° C. for at least 30 minutes, 10 μl or 20 μl of the test or control formulation containing equal amounts of DFMO were added to the surface of the skin and gently spread over the entire surface with a glass stirring rod. A radiotracer amount of 14C-DFMO (0.5-1 microCurie per diffusion chamber) was used in the formulations to assess DFMO penetration. Penetration of DFMO was determined by removing an aliquot (400 μL) periodically throughout the course of the experiment, and quantitating radioactivity using liquid scintillation.

[2] = In vitro diffusion (Franz) skin penetration assay, Protocol 1, 14C-DFMO through hamster skin; assay type: in vitro ADME, Golden, Syrian hamsters
Excerpt: as §1

[3] = In vitro skin penetration assay, Protocol 2 (skin pretreated 15 minutes with formulation without DFMO); assay type: in vitro ADME, Golden, Syrian hamsters or Hartley guinea pigs; details: Tables 9 and 10
Excerpt: as §1
This procedure is similar to that described in Protocol 1 with the exception that prior to the application of radiolabeled DFMO, the skin surfaces received 1 ml of the formulation without DFMO. After 15 minutes the formulation was removed and the surface of the skin was gently dried with a cotton swab. […]

[4] = DFMO skin penetration after overnight pretreatment of the skin with fatty acid; assay type: in vitro ADME; details: skin pretreated overnight; DFMO in hydroalcoholic formulation; receptor fluid measured hourly over eight hours (FIG. 1, FIG. 2)
Excerpt: as §1
Further confirmation of the cis fatty acid action on skin penetration was obtained by pretreating the skin overnight with oleic acid or elaidic acid. The following day DFMO was applied to the surface of the skin in the hydroalcoholic formulation.

[5] = assay type: in vitro ADME; details: 1 %
Description: DFMO skin penetration was assessed using a modified protocol of the Franz diffusion assay. In this experiment either the SP33 formulation (without DFMO) or the SP33 formulation prepared with dipropylene glycol dimethylether (DPGDME) again with out DFMO was applied to the skin for […]. The formulations were then removed from the skins' surfaces, which were dried with a cotton swab. The hydroalcoholic formulation 1—containing 1% DFMO with radiotracer ^14C-DFMO—was applied to the skin and gently spread over the surface with a glass, stirring rod. Aliquots of the receptor fluid were removed at 3, 6 and 24 hours after DFMO application and penetration was determined using liquid scintillation. As shown in Table 6 enhancement of DFMO penetration through the skin occurred when dipropylene glycol […] was substituted for dipropylene glycol.

## CCCCCCCCCCCCN1CCCC1=O [DDP, 1-dodecyl-2-pyrrolidanone]
[1]; 2 hrs
  Fold-Enhancement DDP/Control: 0.41 fold
  % Applied Dose of DFMO penetrated: 0.15 ± .01 % Applied Dose
[1]; 4 hrs
  Fold-Enhancement DDP/Control: 0.91 fold
  % Applied Dose of DFMO penetrated: 0.52 ± .08 % Applied Dose
[1]; 6 hrs
  Fold-Enhancement DDP/Control: 2.00 fold
  % Applied Dose of DFMO penetrated: 1.26 ± .24 % Applied Dose
[1]; 24 hrs
  Fold-Enhancement DDP/Control: 5.11 fold
  % Applied Dose of DFMO penetrated: 9.31 ± 1.38 % Applied Dose
[1]; DDP 10% in cream base Formulation-1
  Increase in skin penetration by DFMO: ≤ 5 fold

## Tween-40
[2]
  Fold Enhancement of DFMO penetration: 3.07 ± 1.65 fold

## CCCCCCCC/C=C\CCCCCCCC(=O)O [Oleic Acid]
[2]
  Effect on DFMO skin penetration (in words): increase in skin penetration
[2]; Golden Syrian, hamster, 10 %
  Fold Enhancement of DFMO penetration: 2.85 ± .76 fold

## CC(C)[C@@H]1CC[C@@H](C)CC1=O [Menthone]
[2]; Golden Syrian, hamster, 10 %
  Fold Enhancement of DFMO penetration: 1.99 ± .40 fold

## CC(C)CCCCCCCCCCCCCCCOC(=O)CCCCCCCCCCCCCCC(C)C [Isostearyl Isosterate, isostearyl isostearate]
[3]
  Effect on penetration of DFMO through the skin (in words): significantly increased the penetration of DFMO through the skin

## CCCCCCCCCCCCCC(=O)OC(C)C [IPM, isopropyl myristate]
[3]
  Effect on penetration of DFMO through the skin (in words): significantly increased the penetration of DFMO through the skin

## CCCCCCCC/C=C/CCCCCCCC(=O)O [elaidic acid]
[4]
  Enhancement of DFMO skin penetration after pretreatment: no increase in skin penetration of DFMO
[2]
  Effect on DFMO skin penetration (in words): devoid of DFMO penetration enhancing properties

## CCCCCCCCCCC/C=C\CCCCC(=O)O [Petroselenic Acid]
[2]
  Fold Enhancement of DFMO penetration: 1.40 ± 1.5 fold

## Tween-80
[2]
  Fold Enhancement of DFMO penetration: 0.502 ± .14 fold
  Reduction in DFMO penetration: ~50%

## COCC(C)OCC(C)OC (centres unmarked) [DPGDME, dipropylene glycol dimethylether]
[5]; 3 h
  % Applied Dose of DFMO penetrated: 7.71 ± 3.1 % Applied Dose
  Fold-Enhancement: 4.64 fold
[5]; 6 h
  % Applied Dose of DFMO penetrated: 9.55 ± 3.68 % Applied Dose
  Fold-Enhancement: 3.93 fold
[5]; 24 h
  % Applied Dose of DFMO penetrated: 10.85 ± 3.8 % Applied Dose
  Fold-Enhancement: 3.02 fold

## Tween-20
[2]; Tween derivative 5% in Hydroalcoholic Formulation 1, hamster skin
  Fold Enhancement of DFMO penetration: 1.54 ± .47 fold

## CC12CCC(CC1)C(C)(C)O2 [Cineole, 1,8-cineole]
[2]; Golden Syrian, hamster, 10 %
  Fold Enhancement of DFMO penetration: 1.91 ± .51 fold

## Capric/Caprylic Triglyceride [Captex]
[1]
  Effect on DFMO skin penetration (in words): increase in DFMO skin penetration
